# Measurements: patent publication US11834401B2, “Treating and preventing diseases by modulating cell mechanics” (THE JOHNS HOPKINS UNIVERSITY, priority 2013, dated 2023)
# Columns and labels:
# [1] = test system: AsPC-1 shCTRL and shIIA cells; assay: Transwell migration of knockdown lines; assay type: cell-based, human
# Method: AsPC-1 cells were plated in 6.5-mm PET membrane transwell inserts with 8-μm pores (Costar #3464) in a 24-well plate at a concentration of 5,000 cells per well. Cells were allowed to adhere overnight in AsPC-1 media. Cell media was then changed to serum-free RPMI 1640 to starve cells for 18 hrs. Following starvation, cells were stimulated by changing media in the top chamber to fresh serum-free RPMI 1640±500 nM 4-HAP and complete AsPC-1 media ±500 nM 4HAP. Cells were then incubated for 24 hrs at 37 degrees C./5% CO2 and then fixed in 4% paraformaldehyde, permeabilized in 0.1% Triton X-100 and stained with 1 μg/ml DAPI. […] A total of five random fields per transwell insert were imaged using a 10× objective (NA) and nuclei were averaged.
# [2] = test system: Panc10.05 tissue spheroids; assay: Tissue spheroid dissemination and cortical actin structure; assay type: cell-based, human
# Method: Tissue spheroids were grown by plating Panc10.05 cells on a drop of Matrigel (Becton-Dickinson) in an 8-well slide chamber (6,500 cells per well) and grown in RPMI 1640 media (2% serum, 2% matrigel, and 10 ng/ml EGF). Spheroids were grown for 14 days with regular media changes, then aspirated off the surface of the matrigel, washed with ice-cold PBS with mild centrifugation ([…], 5 min). For all 2D spreading assays, spheroids were then plated on 50 µg/ml collagen-coated 8-well coverslips (MatTek) and incubated for 48 hrs in complete PANC media with 500 nM 4-HAP or PBS control. For 3D invasion assays, spheroids were resuspended in a 1.5 mg/ml collagen solution (Life Technologies) and then plated in 8-well chambered coverslips. […] All spheroid samples were fixed in 4% paraformaldehyde for 15 min at 25° C. and permeabilized in 0.1% Triton X-100 for 15 min at 25° C. The actin cytoskeleton was visualized with rhodamine-phalloidin ([…]) for 30 min. Two-dimensional spreading was visualized with Olympus Spinning disk microscope (40× oil objective, 1.30NA) or Nikon-NSIM (100× objective, 1.4NA) with an Andor EMCCD camera controlled by NIS-Elements software. Three-dimensional invasion through collagen was visualized with an Olympus Spinning Disk microscope (20× air, 0.4NA).
# Quantification of 2D spheroids plated on a thin layer of collagen was performed using a custom-designed Matlab script (Mathworks, Natick, Mass.). A maximum intensity projection of 20 z-slices was extracted from each of the images and converted to 16-bit grayscale before enhancing the pixel intensity (Matlab command: histeq). The enhanced image was then segmented into foreground and background using the Chan-Vese method (activecountour), followed by filtering of small regions (bwareaopen), and morphological erosion (imerode). The boundary from this object was then obtained (bwboundary) and average background intensity was subtracted. This method was used for more than 80% of the images. […] This option allowed the user to select a region of interest surrounding the outer edge of the spheroid (roipoly). Anything outside of this boundary was masked and subsequently not considered (regionfill). Following this, a similar binarization/background subtraction regime was implemented on the unmasked region and the boundary was traced.
# For each point along the boundary, a line perpendicular to the edge was computed and the intensity along this line was used to linearize the cortex. The resultant matrix was converted into a grayscale image. The Hough Transform was used to determine the continuity of the actin belt along the edge of the cortex. Linearized cortex images were binarized using a threshold chosen to best differentiate belt from non-belt for each set of images (imbinarize), followed by filtering of small regions (bwareaopen), and morphological dilation (imdilate). The Hough Transform was performed on this image (hough), and Hough peaks and lines identified (houghpeaks, houghlines). These were used to create a continuity score defined by (E Hough line lengths)/(number of lines+length of image). In this metric, higher scores indicate a more continuous actin belt at the cortex. Additionally, we computed: a coarseness index of the cortex (std2) to describe actin distribution, the percentage of white pixels of the binarized image to characterize actin belt thickness, and the ratio of white pixels to gray pixels (greater than 0.15) to describe the distribution of fluorescence.
structure (smiles),measurement,setting,value
"CC(=O)c1ccc(O)cc1 [4-HAP, 4-hydroxyacetophenone]",transwell migration,[1],moderate dose-dependence reduction of transwell migration
same,dissemination from spheroids,"[2]; NMIIA knockdown, 3D collagen I, 24 hours",decreased
same,dissemination from spheroids,"[2]; control knockdown, 3D collagen I, 24 hours",decreased
same,actin band continuity score,[2]; control spheroids,decreased upon treatment with 4-HAP
same,cortex coverage by actin bands,[2]; control spheroids,decreased cortex coverage
same,cortex coverage by actin bands,[2]; myo IIA knockdowns,the coverage increased
same,cortex coverage by actin bands,[2]; myo IIC knockdowns,unaffected by the treatment of 4-HAP
same,increase in median percentage staining of actin at tissue edge,"[2]; myosin IIA knockdown spheroids, 2D",2 fold
same,dissemination from spheroids,[2]; myosin IIC-depleted spheroids,no effect was observed
same,actin band continuity score,"[2]; shIIA spheroids, p=0.01",increased significantly
same,actin belt formation,[2]; when myosin IIC is present,Actin belts are formed
